Each structure is given as a SMILES string. Marks after values point to notes of the source that are not given here.

The EC50 is the concentration needed to bring the measured effect to its halfway point.

The target in experiment [1] is T1, ADRA1A receptor (Homo sapiens, UniProt P35348).
T1 construct: expressed in transfected cells
T1 sequence (P35348 1-466): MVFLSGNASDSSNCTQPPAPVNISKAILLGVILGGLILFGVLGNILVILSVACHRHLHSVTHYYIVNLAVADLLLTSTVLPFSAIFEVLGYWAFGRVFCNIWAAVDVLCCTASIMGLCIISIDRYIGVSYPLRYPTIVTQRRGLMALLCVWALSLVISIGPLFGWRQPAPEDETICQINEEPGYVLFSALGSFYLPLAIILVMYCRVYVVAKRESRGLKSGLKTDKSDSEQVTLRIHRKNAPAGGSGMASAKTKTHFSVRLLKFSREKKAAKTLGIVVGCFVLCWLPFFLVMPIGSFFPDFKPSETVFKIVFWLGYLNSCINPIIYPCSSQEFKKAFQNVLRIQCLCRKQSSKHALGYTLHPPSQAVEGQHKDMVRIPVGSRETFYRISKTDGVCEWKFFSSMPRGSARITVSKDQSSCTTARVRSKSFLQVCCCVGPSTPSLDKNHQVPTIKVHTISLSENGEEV
Description: Effect on calcium current in cells which stably express ADRA1A receptor. Format: cell-based. On the procedure: Test Example 4. Determination of the Effect of the Present Compounds on Calcium Current in the Cells which Stably Express ADRA1A Receptor
Determination of the activation effect of the compounds on ADRA1A receptors.
1) Flp In-CHO-ADRA1A Stable Pool cell lines were cultured in complete medium at 37° C., 5% CO2 to 70%-90% fusion.
2) Complete culture medium: Ham's F12K+10% FBS+1*Penicillin−Streptomycin+600 μg/mL Hygromycin B; Cell inoculation medium: Ham's F12K++10% FBS; Experimental buffer: 1×HBSS+20 mM HEPES
3) After TrypLE digestion, the cells were re-suspended in the inoculation medium and inoculated in 384 well cell culture plate (Corning, 3764). 7000 cells were inoculated into each well and incubated overnight at 37° C. and 5% CO2.
4) 20× Component A was freeze-thaw to room temperature, and then diluted with experimental buffer to 2× working concentration including 5 mM Probenecid, which was then placed at room temperature for use.
5) The cell culture plate was taken out, and let to stand at room temperature for 10 minutes. The plate was subject to inverted centrifugation at 200 g, and RT centrifugation for 1 second, and then 20 μL Assay buffer was quickly added to the cell culture plate. Then 20 μL 2× Component A containing 5 mM Probenecid was added to each experimental well, which was centrifuged by RT at 200 g for 3-5 seconds, and incubated at 37° C. for 2 hours.
6) The working solution (5×) for the compound to be tested was prepared and placed and at room temperature for use.
7) The cell culture plate was taken out and let to stand at room temperature for 10 minutes.
8) 10 μL diluteSd compound working solution in step 6) was added to each the experimental well using FLIPR Tetra and data were collected.
[formula] • 5) EC50 of the compounds was calculated by GraphPad nonlinear fitting formula:
(§1) [formula] • X: Log value of the compound concentration; Y: Activation %

The subject of experiment [2] is C57BL/6 mice, high spontaneous activity induced by phencyclidine (PCP). Description: High spontaneous activity model of mice induced by phencyclidine (PCP). The format is in vivo. The note with it: 60 minutes after modeling. The source says: Test Example 2. Pharmacodynamic Evaluation of the Present Compounds in Mice Model of High Spontaneous Activity Induced by Phencyclidine (PCP)
The purpose of the experiment is to evaluate the efficacy of compounds in a high spontaneous activity model of C57BL/6 mice induced by phencyclidine (PCP) using the spontaneous activity method.
C57BL/6 mice, provided by Shanghai Lingchang Biotechnology Co., Ltd., male, 6-8 weeks, 20-24 g, 36 mice.
The day before the experimental test, the animals were placed in the laboratory and acclimated for 8 hours.
On the day of adaptation, the animals were randomly grouped according to their weight.
The animals were weithed and treated with solvent control (20% HP-3-CD), compounds of the present invention (oral administration) respectively. 30 minutes later, modeling (intraperitoneal administration) was performed, and the animals were given physiological saline or phencyclidine, with dosage volume of 10 mL/kg.
After the administration, the animals were placed in observation box and the spontaneous activity was detected for 30 minutes. The moving distance (meters) of the animals in the observation box was counted every 5 minutes.
After 30 minutes, the animals were taken out for modeling and then placed in the observation box to test their spontaneous activity for 60 minutes. The moving distance (meters) of the animals in the observation box was counted every 5 minutes.
Excel software was used to collect data. A Two-Way ANOVA or One-Way ANOVA was conducted used Prism (Graph pad software, Inc.) software. p<0.05 was considered significant difference.

Experiment [3] addresses T2, TAAR1 receptor (Homo sapiens, UniProt Q96RJ0).
T2 construct: expressed in transfected cells
T2 sequence (Q96RJ0 1-339): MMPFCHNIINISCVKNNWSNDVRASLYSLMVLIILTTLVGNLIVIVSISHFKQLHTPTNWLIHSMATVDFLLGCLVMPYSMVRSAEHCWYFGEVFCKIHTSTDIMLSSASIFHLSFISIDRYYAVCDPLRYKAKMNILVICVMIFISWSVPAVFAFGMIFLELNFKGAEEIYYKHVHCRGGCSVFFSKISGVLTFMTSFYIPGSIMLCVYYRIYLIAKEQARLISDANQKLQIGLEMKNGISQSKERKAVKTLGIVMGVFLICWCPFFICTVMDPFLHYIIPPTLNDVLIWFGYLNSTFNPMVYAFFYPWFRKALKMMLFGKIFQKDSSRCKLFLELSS
As to the kind of experiment: Effect on cAMP content in cells which stably express TAAR1 receptor. Format: cell-based. Here is the method: Test Example1. Determination of the effect of the present compound on cAMP content in cells which stably express TAAR1 receptor
Determination of the activation effect of compounds on TAAR1 receptors.
• 1) Preparation of experimental buffer: 1*HBSS+20 mM HEPES+0.1% BSA+500 μM IBMX. • 2) Complete medium: • Ham's F12K+10% Fetal Bovine Serum+1*Penicillin-Streptomycin+200 μg/mL Hygromycin B for CHO • DMEM+10% Fetal Bovine Serum+1*Penicillin-Streptomycin+200 μg/mL Hygromycin B for HEK293 • 3) TAAR1 cell line was cultured in complete medium at 37° C. and 5% CO2; After TrypLE digestion, the cells were resuspended in the experimental buffer and seeded into a 384 cell culture plate with a density of 8000 cells/15 ul/well. • 4) The compound was diluted with experimental buffer and added 5 μL to each well to culture at 37° C. for 30 minutes. • 5) cAMP-d2 and Anti cAMP Eu3+ were freeze thaw, and diluted 20 times with lysis buffer; 10 μL cAMP-d2 was added to the experimental well, and then 10 μL Anti cAMP Eu3+ was added into the experimental well; the reaction plate was centrifuged at 200 g for 30 seconds at room temperature, and stand at 25° C. for 1 hour; data was collected by Envision.
[formula] • 5) EC50 of compounds was calculated using GraphPad nonlinear fitting formula:
as §1

Setting [4] is: compound 3 mg/kg oral + PCP 5 mg/kg i.p.
Where [5] appears, read: compound 1 mg/kg oral + PCP 5 mg/kg i.p.

In the case of `[2H]C1([2H])COC(c2cccc(C)n2)CN1` (single isomer, unassigned) [Example 10-2, 2-(6-Methylpyridin-2-yl)morpholin-5,5-d2], the EC50 was determined as 1170 nM in experiment [1] and 5.4 nM in experiment [3]. Moreover, the “Total distance (m, Mean ± SEM) 60 minutes” value in experiment [2] (setting [4]) was 152.6*** m.
Turning to `[2H]C1([2H])CO[C@H](c2ccc(F)cc2)CN1` (single isomer, unassigned) [Example 33-1, 2-(4-Fluorophenyl)morpholin-5,5-d2], the results for the EC50 in experiment [1] and in experiment [3] were 1410 nM and 7.9 nM, respectively. Moreover, the “Total distance (m, Mean ± SEM) 60 minutes” value was 136.4*** m in experiment [2] (setting [5]), 126.3*** m in experiment [2] (setting [4]) and 83.23*** m in experiment [2] (compound 10 mg/kg oral + PCP 5 mg/kg i.p.).
`[2H]C1([2H])CO[C@@H](c2ccc(F)cn2)CN1` (single isomer, unassigned) [Example 17-2, 2-(5-fluoropyridin-2-yl)morpholin-5,5-d2]: the EC50 amounted to 3170 nM in experiment [1] and 8.3 nM in experiment [3]. Further, the “Total distance (m, Mean ± SEM) 60 minutes” value in experiment [2] (setting [5]) is 140.1*** m; in experiment [2] (setting [4]), 114.1*** m.
